Experimental findings from patent US20040087539A1, “Method of treating conditions related to platelet activity” (priority 2003, published 2004) are described below.

The subject of assay [1] is platelets. In words: Low-dose α-thrombin-induced aggregation of washed platelets. The assay is classed as cell-based, human. The settings on record: for platelet aggregation induced by 0.05 units/ml α-thrombin: washed platelets preincubated 5 min, KT5823 2 μM, Rp-8pCPT-cGMP 0.2 mM, SZ2 40 pg/ml [sic], FIG. 5A. The protocol: (§1) Fresh blood from healthy volunteers was anticoagulated with 1/7 volume of ACD (2.5% trisodium citrate, 2% dextrose and 1.5% citric acid). Platelets were washed with CGS buffer (sodium chloride 0.12 M, trisodium citrate 0.0129 M and d-glucose 0.03 M, pH 6.5), resuspended in modified Tyrode's solution and allowed to incubate at 22° C. for 1 hours as previously described. In experiments using platelet-rich plasma (PRP), 1/10 volume of 3.8% trisodium citrate was used as anticoagulant. Platelet aggregation was measured using a turbidometric platelet aggregometer (Chrono-Log) at 37° C. vWF-dependent platelet aggregation was induced by addition of ristocetin or botrocetin to PRP. To differentiate CPIb-IX-mediated platelet agglutination from the second wave of integrin-dependent platelet aggregation, final concentrations of ristocetin were adjusted in each experiment to achieve a two-wave curve of aggregation. Washed platelets were used in platelet aggregation induced by a-thrombin (Enzyme Research Laboratories). To examine the effects of PKG, 100 μM of membrane permeable cGMP analogs, 8-bromo-cGMP or 8-dibutyl-cGMP (Calbiochem), or 1 μM sildenafil citrate (Pfizer) and added simultaneously with subthreshold concentrations of agonists. PKG inhibitors KT5823 (2 pM) and Rp-8PCPT-cGMP (0.2 mM) were preincubated with platelets at 37° C. for 5 minutes before addition of agonists.
In FIG. 5A, washed platelets were preincubated with 40 pg/mi anti-GPIba monoclonal antibody SZ2, integrin inhibitor RGDS, or inhibitors of PKG, KT5823 (2 μM) or Rp-8pCPT-cGMP (0.2 mM) (Calbiochem), for 5 min. Platelets also were preincubated with DMSO (vehicle for KT5823), KT5720 or buffer (Control) as controls. α-Thrombin (0.05 units/mi) then was added to induce platelet aggregation. Nonspecific JgG and RGES peptides also were examined as additional controls, but had no effect (not shown). In FIG. 5B, a subthreshold dose of thrombin was added to platelets immediately followed by addition of PKG activator 8-bromo-cGMP or buffer (Control). Shown in the figure are the representative results of at least three experiments.
(§2) In FIG. 6A, increasing concentrations of sildenafil or control 0.15 M NaCl solution were added to platelet-rich plasma followed by a subthreshold concentration of ristocetin. Platelet aggregation was recorded using a platelet aggregometer. In FIG. 6B, sildenafil or control buffer was added to washed platelets followed by addition of subthreshold doses of thrombin to induce platelet aggregation. It was noted that platelet aggregation occurs in the presence of sildenafil. The figure includes the representative results of at least three experiments.
(§3) In FIG. 7A, PRP was preincubated with 0.1 mM 8-bromo-cGMP for increasing lengths of time at 37° C. as indicated. The vWF modulator, ristocetin (1.25 mg/ml), then was added to induce platelet aggregation in a turbidometric platelet aggregometer. In FIG. 7B, PRP was preincubated with a high concentration of 8-bromo-cGMP (1 mM) for 5 minutes. Ristocetin then was added to induce platelet aggregation. In FIGS. 7C and 7D, washed platelets in modified Tyrode's solution were preincubated with 1 mM 8-bromo-cGMP (C), or various concentrations of 8-pCPT-cGMP (D) at 37° C. for 5 minutes. Thrombin (0.05 u/ml) then was added to induce platelet aggregation.

Assay [2] deals with platelets. In words: Ristocetin-induced vWF-dependent platelet aggregation in platelet-rich plasma. Type of assay: cell-based, human. The settings on record: for integrin-dependent second wave of platelet aggregation induced by ristocetin: PRP preincubated 37° C. 5 min, KT5823 2 pM, Rp-8pCPT-cGMP 0.2 μM, KT5720 2 pM [sic], FIG. 3A. The protocol:
as §1
(§4) In FIG. 3A, platelet rich-plasma (PRP) was preincubated at 37° C. for 5 mm with PKG inhibitors KT5823 (2 pM) or Rp-8pCPT-cGMP (0.2 μM). PRP was also incubated with DMSO (vehicle for KT5823), a PKA inhibitor, KT5720 (2 pM), or buffer (Control). The vWF modulator, ristocetin, was then added to induce vWF-GPIb-IX interaction. […] In FIG. 3B, a subthreshold concentration of ristocetin was added to PRP immediately followed by addition of 8-bromo-cGMP or buffer (Control). PRP also was preincubated with integrin inhibitor RGDS before adding ristocetin and 8-bromo-cGMP. In FIG. 3C, platelets were preincubated with or without PKG inhibitor KT5823, then allowed to spread on vWF-coated glass chamber slides. Platelets were stained with an anti-GPIb antibody, and fluorescein-labeled secondary antibody. The slides were imaged under a confocal microscope (magnification =630×).
as §2, §3

Assay [3] concerns CHO cells expressing human platelet receptors. Description: Cell adhesion to immobilized vWF under flow. Type of assay: cell-based, Chinese Hamster. The note with it: sildenafil 5 μM, RGDS 4 mM. The procedure: CHO cells expressing human platelet receptors were resuspended in modified Tyrode's buffer, pH 7.4, containing 1 mg/mi of bovine serum albumin (BSA) (see Ref. 46), and final cell count was 5×10^5/ml. […] Purified human vWF (10 μg/ml in 0.1 M NaHCO3, pH 8.3) was added to glass microcapillary tubes (inner diameter of 1.33 mm and a length of 7.2 cm), and incubated at 4° C. for 20 h. The vWF-coated microcapillary tubes then were incubated with 5% BSA. After washing, the cell suspension was aspirated through the tube by a syringe pump (Harvard Apparatus Inc.) at desired shear rates for 1.2 minutes and washed with modified Tyrode's buffer for additional 10 minutes at the same shear rates to remove transiently adherent cells. The experiments were continuously recorded on videotape using a video cassette recorder (model 9500, Sony). The number of stably adherent cell on immobilized vWF was counted on images obtained at 20 randomly selected positions in the vWF-coated tubes.
In FIGS. 2A and B, vWF-coated capillary tubes were perfused with equivalent numbers (5×10^5/ml) of CHO cells expressing recombinant GPLb-JX alone (1b9), integrin αIIbβ3 alone (2b3a), both GPIb-IX and integrin αIIbβ3 (123) or expressing GPJb-JX, integrin α^IIbβ3 and PKG Ia (123PKG) at a shear rates of 800 s^−1 (A) or 1500 s^−1 (B) for 1.2 minutes, and then perfused with the modified Tyrodes buffer for 10 minutes at the same shear rates to wash out transient adherent cells. The expenments were recorded in real time. Cells stably adherent to vWF-coated capillary tubes at 20 randomly selected locations were counted.
In FIG. 2C, vector-transfected 123 cells (123) or 123PKG cells also was perfused into vWF-coated glass capillary tubes as described in FIG. 2A in the absence or presence (+RGDS) of an integrin inhibitor RGDS peptide (4 mM) and in the absence (Control) or presence of cGMP-enhancing drug, sildenafil (5 μM). […] The experiments were repeated at least three times.

Assay [4] has as its system platelets. In words: Measurement of cGMP formation in washed platelets (enzyme immunoassay). Type of assay: cell-based, human. The settings on record: ristocetin plus vWF 15 μg/ml or glyco-SNAP1 100 μM, 5 minutes, FIG. 4. The procedure:
Washed platelets (3×10^8/ml) resuspended in 400 μl Tyrode's buffer were stirred at 37° C. after addition of control buffer, 1 mg/mi ristocetin alone, 15 pg/mi vWF and 1 mg/mi ristocetin, or 100 μM glyco-SNP1. The reaction was stopped by addition of 400 μl of ice-cold 12% (w/v) trichloroacetic acid. Samples were mixed and centrifuged at 2000×g for 15 ruin at […]. Supenatant was removed and washed with 5 volumes of water-saturated diethyl ether 4 times, and then lyophilized. cGMP levels were measured using a cGMP enzyme immunoassay kit from Amersham-Pharmacia Biotech.
Washed platelets (3×10^8/ml) were preincubated at 37° C. for 10 mm with buffer, control JgG, a monoclonal antibody against GPIba, AK2. Platelets then were further incubated in a platelet aggregometer for 5 minutes after addition of buffer (Control), 1.25 mg/ml ristocetin only (Risto), ristocetin plus vWF (vWF) (15 μg/ml) or glyco-SNAP1 (100 μM). The reaction was stopped by addition of 400 μl of ice-cold 12% (w/v) trichloroacetic acid. CGMP concentrations were determined using a cGMP enzyme immunoassay kit. Results are expressed as mean ±SD (n=3).

Assay [5] deals with 123 cells (CHO cells expressing recombinant human GPIb-IX and integrin αIIbβ3). Description: vWF-induced GPIb-IX-mediated activation of integrin αIIbβ3 (Oregon green-labeled fibrinogen binding, flow cytometry). The note with it: 123 cells; preliminary studies, data not shown. The assay is classed as cell-based, Chinese Hamster. The protocol:
Human PKG Iβ cDNA was cloned by RT-PCR, using human platelet mRNA as templates. Sequence of the human PKG Iβ cDNA fragment matches the published sequence. Cloning of human PKG Iα cDNA was described previously. PKG Iα or Iβ in pCDNA3.1/Zeo+vector was transfected into 123 cells (CHO cells expressing recombinant human CPIb-IX and integrin αIIbβ3 using Lipofectamine plus (BRL). Expression of PKG was assessed by Western blotting with an antihuman PKG I antibody (Calbiochem). The kinase activity of the expressed enzymes was measured in cell homogenates using BPDEtide (Calbiochem) as substrate as detailed previously. vWF-induced GPIb-IX-mediated activation of integrin αIIbβ3 was examined by flow cytometry analysis of Oregon green-labeled fibrinogen binding to integrln αIIbβ3 as described previously. Briefly, cells were detached from tissue culture plate using 0.5 mM EDTA, washed at 4° C. and resuspended in modified Tyrode's solution. Cells then were incubated with Oregon green-labeled fibrinogen (20 μg/ml) in the presence of ristocetin and vWF at 22° C. for 30 minutes, and analyzed by FACScalibur flow cytometer. Nonspecific binding of fibrinogen was estimated by measuring fibrinogon binding in the presence of a specific integrin inhibitor RGDS (1 mM) (see Refs. 13 and 43-45).
In FIG. 1A, CHO cells expressing GPLb-JX and integrin αIIbβ3 (123 cells) were transfected with cDNA encoding PKGIα or vector. Expression of PKG Ia in 123 cells was detected by Western blotting with an anti-human PKG I antibody (Insert), and recombinant PKG activity was determined in the absence or presence of 20 μM 8-bromo-cGMP as previously described. Results are expressed as mean +SD (n=3). For FIGS. 1B and 1C, reconstitution of GPIb-IX-mediated integrin activation in CHO cells was published (see Ref. 13). […] Cells were analyzed by flow cytometry. Quantitative results from three experiments are expressed as fibrinogen binding indices (total bound fluorescence (Fg)/nonspecifically bound fluorescence (Fg+RGDS)), and shown in FIG. 1B (mean ±SD).

The subject of assay [6] is platelets. In words: Platelet spreading on vWF-coated surface. Type of assay: cell-based, human. The settings on record: FIG. 3C. The procedure: Platelets were allowed to adhere and spread on 10 μg/ml vWF-coated glass chamber slides (Nunc) at 37° C. for 1 hour. After three washes, platelets were fixed by adding 4% paraformaldehyde in PBS. Platelets were permeabilized by adding 0.1 M Tris, 0.01 M EGTA, 0.15 M NaCl, 5 mM MgCl2, pH 7.4, containing 0.1% Triton X-100, 0.5 mM leupeptin, 1 mM PMSF, and 0.1 mM E64, and then incubated with 20 μg/ml of anti-GPIba antibody (anti-IbαC) at 22° C. for 1 hour. Platelets were further incubated with fluorescein-labeled secondary antibody at 22° C. for 30 mm. After additional washes, platelets were scanned under a Zeiss LSM 510 confocai microscope (Magnification=630×).
as §4, with “Platelets were stained with an anti-GPIb antibody, and fluorescein-labeled secondary antibody. The slides were imaged under a confocal microscope (magnification =630×).” left out

RGES: the “platelet aggregation induced by 0.05 units/ml α-thrombin” value with platelets [1] is reported as “no effect”.

Consider `Nc1nc2c(nc(Sc3ccc(Cl)cc3)n2C2OC3COP(O)(=S)OC3C2O)c(=O)[nH]1` (stereo not drawn) [Rp-8-pCPT-cGMP], for which the “integrin-dependent second wave of platelet aggregation induced by ristocetin” value (“integrin-dependent second wave” for short) with platelets [2] is recorded as “inhibited”. The “platelet aggregation induced by 0.05 units/ml α-thrombin” value in the assay with platelets [1] is given as “inhibited”. Regarding `Nc1nc2c(nc(Sc3ccc(Cl)cc3)n2C2O[C@@H]3COP(=O)(O)O[C@H]3[C@H]2O)c(=O)[nH]1` (stereo in doubt) [8-pCPT-cGMP], in the assay on platelets [2] (PRP, agent added with subthreshold ristocetin (1 mg/mm [sic]) (or botrocetin), FIGS. 3B, 6A), the “platelet aggregation together with a subthreshold concentration of ristocetin” value is on record as “induced integrin-dependent platelet aggregation”. For the same molecule, the “preincubation time required to inhibit platelets” value in the assay with platelets [1] (0.5 mM 8-pCPT-cGMP, washed platelets, thrombin 0.05 u/ml, FIG. 7D) is “less than 5 minutes”. With RGDS, the “stable adhesion of PKG-expressing 123 cells (123PKG) to vWF under flow” value in assay [3] (FIG. 2C, 8-bromo-cGMP not shown) was “inhibited”. In addition, the “stable adhesion of sildenafil-treated 123 cells to vWF under flow” value in assay [3] is on record as “inhibited”. Besides, the “platelet aggregation induced by 0.05 units/ml α-thrombin” value with platelets [1] is reported as “inhibited”. Regarding “vWF: purified human von Willebrand factor, ligand of GPIb-IX”, the “platelet cGMP levels” value in the assay on platelets [4] was “dramatic increase”. In the case of `COC(=O)[C@@]1(OC)C[C@H]2O[C@]1(C)n1c3ccccc3c3c4c(c5c6ccccc6n2c5c31)C(=O)N(C)C4` [KT5823], in the assay with platelets [2], the “integrin-dependent second wave” value is on record as “abolished”. Moreover, in assay [5], the GPIb-IX-mediated integrin activation result is “inhibited”. Moreover, in the assay with platelets [6], the “platelet spreading on a vWF-coated surface” value is recorded as “inhibited”. For the same molecule, the “platelet aggregation induced by 0.05 units/ml α-thrombin” value in the assay on platelets [1] was “inhibited”. For the molecule `CCCCCCOC(=O)[C@]1(O)C[C@@H]2O[C@@]1(C)n1c3ccccc3c3c4c(c5c6ccccc6n2c5c31)C(=O)NC4` [KT5720], the “integrin-dependent second wave” value with platelets [2] is on record as “no inhibitory effects”. On to `CC(=O)NC(C(=O)NC1OC(CO)C(O)C(O)C1O)C(C)(C)SN=O` (stereo not drawn) [glyco-SNAP1], for which the “platelet cGMP levels” value in the assay with platelets [4] is “comparable”.
